Assays:
MB16-Luc cells = test: Hepatic retention of luciferase-transfected MB16 cells (MB16-Luc); assay type: in vivo, C57BL/6J mice; settings: 2 doses of 1 mg/kg/day nasogastrically; 18 h after intrasplenic injection; control 1.80 ± 0.23
Description: Test of hepatic retention of luciferase-transfected MB16 cells (MB16-Luc) (see Table 1). B16M Cells were stably transfected by lipofection as described previously (Rubio N, Martinez-Villacampa M, Blanco J. Traffic to lymph nodes of PC-3 prostate tumor cells in nude mice visualized using the luciferase gene as a tumor cell marker. Lab Invest 1998; 78:1315-1325), using plasmid pRc/cytomegalovirus-luciferase, a construct containing the Photinus pyralis luciferase gene coding sequence under transcriptional control of the cytomegalovirus promoter and the neomycin resistance gene to the G418 antibiotic (Sigma Chemicals Co.). A total of 300,000 viable B16M-Luc cells were intrasplenically injected into C57BL/6J mice (10 mice per group) which had previously been nasogastrically administered 2 doses of 1 mg/kg/day of compound to be tested. One group of mice received resveratrol, the other group of mice received azaresveratrol. […] Production of light was measured using a luminometer designed to read individual samples tubes (bioorbit, LKB Wallac; Turku, Finland) after the addition of 100 μl of luciferase assay reagent to 20 μl of each liver homogenate. […] Linearity and sensitivity of light detection in liver homogenates and influence of hepatic microenvironment on luciferase activity of B16M-Luc were also evaluated as described previously (Rubio et al, 1998).

MA375 cells = test: MA375 cell adhesion to immobilized VCAM-1 substrates; assay type: cell-based, human; settings: 2.5 μM; for Adhesion of MA375 cells with H2O2 to immobilized VCAM-1 (% cells adhered): 10 μM H2O2, control 21.0 ± 4, H2O2 alone 41.3 ± 4.2; for Adhesion of MA375 cells treated with IL-18 to immobilized VCAM-1 (% cells adhered): control 21.0 ± 4, IL-18 alone 31.5 ± 3.2
Experimental: MB16 and MA375 cell adhesion to immobilized VCAM-1 substrates. The MB16 and MA375 cell adhesion tests were conducted on immobilized VCAM-1 substrates (2 μg/ml of recombinant human VCAM-1, R&D Systems, Minneapolis, Minn.) on 96-well plates. To avoid non-specific attachment to the plastic, 0.5% BSA dissolved in PBS was added to the wells for 2 hours at ambient temperature prior to conducting the adhesion test. The melanoma cells were preincubated with 2.5 μM of the compounds to be tested (azaresveratrol, see Table 2; JE1:2, JE2:1 and JE2:2 see FIG. 2; JEM2:2-01 and JEM2:1-02 see FIG. 7; YEF02, YEF03, YEF07, YEF05B, YEF07B and YEF05H. see FIG. 9) for 30 minutes, to which 10 μM of hydrogen peroxide or 10 ng/ml of IL-18 were added, respectively for a further 24 hours. Afterward, the cells were washed and marked with the BCECF-AM fluorescent probe (carboxyfluorescein, 2′,7′-bis-(2-carboxy-ethyl)-5-(6)carboxyfluorescein aminoxymethyl ester). Thirty minutes later, a washing process was performed to remove the excess fluorochromium, the number of viable cells being calculated by means of the trypan blue exclusion test and (5×10^4 cells/well) being added to the 96-well plate. The co-culture plates were incubator-incubated at 37° C. for 1 hours. The percentage of cellular adhesion was calculated by measuring the fluorescence emitted by the adhered cells (obtained after washing the plate) with regard to the fluorescence emitted by the total number of cells added. The results in the figures are given in values related to the adhesion percentages of the untreated melanoma cells.

MB16 cells = test: Hydrogen peroxide production from MB16 cells (DCFH-DA probe); assay type: cell-based, murine; settings: 2.5 μM prior to IL-18; for H2O2 production by MB16 cells treated with IL-18: control 16.0 ± 3, IL-18 alone 34 ± 3.0
Experimental: Determination of hydrogen peroxide production from HSE and MB16 cells. Primary cultures of HSE cells were treated with 10 μg/ml of the DCFH-DA fluorescent probe for 30 minutes at 37° C. and were washed to eliminate the excess fluorochromium. Afterward, fresh culture medium was added thereto in the presence or absence of 2.5 μM of the compounds JE1:2, JE2:1 or JE2:2 and the production of H202 over the course of time was determined (see FIG. 5). The hydrogen peroxide produced by the cells oxidizes the probe, converting it into a fluorescent molecule. Thus, the cell fluorescence produced by the accumulation of DCF made it possible to detect the intracellular production of hydrogen peroxide. In each cell well, it was possible to determine the relative fluorescence value (arbitrary units of fluorescence brightness) in relation to the quantity of hydrogen peroxide produced at different incubation times. In the experiments with MB16 cells, once the cells had been marked with the DCFH-DA probe, they were incubated for 300 minutes with 2.5 μM of the azaresveratrol or JE2:2 compounds, 10 ng/ml of IL-18 (FIG. 4) then having been added.

human HSC = test: Proliferation of human HSCs treated with MC-MA375; assay type: cell-based; settings: for Increase in HSC proliferation in response to MC-A375 (in words): 12.5 μM 30 min prior to MC-A375; for Proliferation of human HSC's treated with MC-MA375 (No. cells per well): 12.5 μM, 30 min before MC-MA375, 48 h, control 2550 ± 22, treatment alone 4400 ± 30
Experimental: (§1) isolation of primary human cultures of hepatic sinusoidal endothelial (HSE) hepatic stellate cells (HSCs). The primary cultures of human HSE and HSC cells were obtained by non-tumoral hepatic tissue serial profusion with collagenase and pronase solutions, followed by Nycodenz gradient and seeded on 24-well plates (0.5×10^4 cells/cm^2) in DMEM. supplemented with 10% FBS.
HSC proliferation test. Primary cultured human HSC cultures were seeded (2500 cells/well/200 μl) in DMEM with 10% FBS. Once adhered, they were washed to remove the FBS and were incubated with fresh medium in the presence or absence of 12.5 μM of the azaresveratrol compound (see Table 3). Thirty (30) minutes later, conditioned media obtained from MA375 cells were added to some wells, and the plates were incubated for 48 hours in humid incubator at 37° C. with 5% CO2. Upon completion of the incubation time, the cells were fixed and were processed for counting just as previously described hereinabove.

HSE cells = test: Migration of HSE cells treated with MC-MA375 (modified Boyden chamber); assay type: cell-based, human; settings: for Increase in migration of HSE induced by MC-A375 (in words): 12.5 μM 30 min prior to MC-A375; for Migration of HSE's treated with MC-MA375 (No. cells per field): 12.5 μM, 30 min before MC-MA375, 24 h, control 10.0 ± 4, treatment alone 35.0 ± 8.0
Description: as §1
Human HSC and HSE cell migration tests (see Table 3). Primary cultured hepatic endothelial cells (25×10^5) or hepatic stellate cells (2×10^4) were seeded in the upper compartment of modified Boyden chambers equipped with a polycarbonate filter of an 8 μm pore size. Some cells were incubated in the presence or absence of 12.5 μM of azaresveratrol, 30 minutes prior to adding conditioned tumor medium. Twenty-four (24) hours later (in the case of the endothelial cells) or 4 hours later (in the case of hepatic star cells) the number of cells having passed through the membrane was determined. The cells were fixed, were stained with hematoxylin eosine and were counted under the microscope (20×) in 5 fields per well.

SMILES	Hepatic retention of MB16 Luc cells (No. cells × 10^6) (MB16-Luc cells)	Adhesion of MA375 cells with H2O2 to immobilized VCAM-1 (% cells adhered) (MA375 cells)	Adhesion of MA375 cells treated with IL-18 to immobilized VCAM-1 (% cells adhered) (MA375 cells)	Increase of H2O2 production of MB16 cells in response to IL-18 (in words) (MB16 cells)	H2O2 production by MB16 cells treated with IL-18 (MB16 cells)	Increase in HSC proliferation in response to MC-A375 (in words) (human HSC)	Proliferation of human HSC's treated with MC-MA375 (No. cells per well) (human HSC)	Increase in migration of HSE induced by MC-A375 (in words) (HSE cells)	Migration of HSE's treated with MC-MA375 (No. cells per field) (HSE cells)
Oc1ccc(/N=C/c2cc(O)cc(O)c2)cc1 [azaresveratrol, 5-((E)-(4-Hydroxyphenylimino)methyl)benzene-1,3-diol]	0.98 ± 0.24	4.5 ± 0.3	5.0 ± 0.3	significantly (P<0.01) inhibited	10 ± 2.0	abrogated	2600 ± 60	abolished	15.5 ± 30
Oc1ccc(C=Cc2cc(O)cc(O)c2)cc1 [resveratrol, reference compound]	1.05 ± 0.3	6.5 ± 0.5	5.5 ± 0.4	significantly (P<0.01) inhibited	12 ± 1.0	abrogated	2250 ± 100	abolished	13.5 ± 5.0

— patent US8097656B2, “Nitrogenated trans-stilbene analogs, method for the obtention and medical applications thereof” (Dominion Pharmakine S.L, priority 2005, dated 2012)
